The text below walks through data of article PMC7002685, “Inhibition of vascular calcification by inositol phosphates derivatized with ethylene glycol oligomers” (Nature Communications, 2020).

Data set [1] is described as follows: PK s.c. in rats with vitamin D and warfarin-induced VC. It is filed as in vivo. The note with it: Sprague-Dawley, rat, plasma, sc, 50 mg/kg, 50 mg/kg s.c., Cardiovascular calcification model. The protocol: Moreover, the systemic exposure of the compound after s.c. administration was assessed in rats with VC (Fig. 4f, Supplementary Table 3).
To study PK in rats presenting with VC, plasma samples were used from a sub-group of the study where calcification was induced with vitamin D and warfarin treatment.
The bioanalytical method for (OEG2)2-IP4 in rat plasma was further optimized, qualified, and applied to the comparative PK study in adenine and high-phosphate diet-induced VC vs. vitamin D-induced VC animals. The LC-MS/MS analyses were carried out using a Dionex Ultimate RSLC ultra-high-pressure liquid chromatography (UHPLC) system (Thermo Fisher Scientific) coupled with a TSQ Quantiva^TM triple quadrupole mass spectrometer. The samples were stored at 5 °C in the autosampler prior to and during the analyses. […] Gradient elution (solvent A, 20 mM ammonium acetate in water (pH 5); solvent B, ACN) was used according to the program reported in Supplementary Table 18. The injection volume was 10 µL. MS/MS parameters (MRM acquisition, cycle time 0.2 s) for (OEG2)2-IP4 are reported in Supplementary Table 19 and the ESI source, working in negative ionization mode, applied the following parameters: static spray voltage 3000 V ion transfer tube and vaporizer temperatures at 400 and 100 °C, respectively; sheath and auxiliary gas (nitrogen) flow rates at 80 and 3 (arbitrary units). For the quantitative determination in rat plasma, product ion m/z 158.9 was selected because it provided the best sensitivity and selectivity. Calibration curve and quality control samples were prepared by adding 2 μL of working solution to 38 μL rat blank K3EDTA plasma (Biochemed, Winchester, VA) and precipitating plasma protein by addition of 120 μL of MeOH including internal standard OEG11-IP5. Samples were vortexed 1 min and centrifuged at (22,000 × g, 4 °C, 10 min). Supernatants (90 μL) were then transferred into a glass vial with insert and injected onto LC-MS/MS system. Both in adenine and high-phosphate diet-induced VC and vitamin D-induced VC rat PK samples were prepared for analysis in an analogous manner as done for spiked samples (assay volume 40 μL). The LLOQ and LOD in rat plasma for (OEG2)2-IP4 were 50 and 10 ng/mL, respectively. The ULOQ and detection was 50,000 ng/mL.

Data set [2] can be described thus: Plasma calcium after s.c. administration in healthy rats. In kind it is in vivo, rat. The note with it: individual rats. On the procedure:
One potential side effect of inositol phosphate-based drugs is toxicity due to chelation of ionized serum calcium. […] At 100 µM (OEG2)2-IP4, 96 ± 2% of control serum-ionized calcium was measured.
To study PK in healthy animals, male Sprague-Dawley rats (Harlan, Correzzana, Italy) were housed up to three per cage with free access to water and standard chow (pellets 12 mm, global diet 2018 certificate, Mucedola, Srl, Settimo Milanese, Italy), and submitted to a 12-h light/dark cycle. Animals were administered i.v. 10 mg/kg of (OEG2)2-IP4 in saline solution i.v. (30 s bolus, 5 mL/kg) and s.c. (5 mL/kg), respectively, in three animals per route and treatment. […] Plasma calcium concentration was determined in pre-dose samples and in t = 30 min samples of both acute and chronic treatments using the calcium colorimetric assay. Blood samples of 100 µL were drawn at several time points from the caudal vein, centrifuged at (3000 × g, 4 °C, 10 min) and stored at −80 °C until analysis by liquid chromatography–tandem mass spectrometry (LC-MS/MS).

For the next data set, the system named is serum CPP. In words: CPP calcium, CPP2 hydrodynamic diameter and T50 in rat sera at sacrifice. It is filed as in vivo, male Wistar rats. The following applies: 5, 15, 50 mg/kg/day. On the procedure:
The inhibitory effect of (OEG2)2-IP4 on heart calcifications was significant starting at 15 mg/kg/day (Fig. 6b). The compound’s activity was also evident following von Kossa staining (Fig. 6c) on the thoracic part of the aorta, and quantification of the von Kossa-positive area (Fig. 6d). […] In the femoral artery, reduction in bulk calcium was insignificant for all tested groups, likely due to the low level of calcification detected in the vehicle control (Fig. 6f, Supplementary Table 9).
DLS analysis of CPPs induced in serum samples collected from in vivo adenine-induced VC studies and stored at −20 °C was performed as described for human serum samples and CPP hydrodynamic diameter development was monitored by hourly DLS measurements.
The first group was treated with vehicle (double distilled (d.d.) water), the second, third, and fourth groups were treated with daily doses equivalent of 5, 15, and 50 mg/kg of (OEG2)2-IP4, respectively, in 2 mL d.d. water starting 1 week after the administration of the adenine diet. […] Serum samples were analyzed for creatinine according to the Jaffe method, calcium (using flame atomic absorption spectrometry[74]), and phosphate (DiaSys Diagnostic Systems, Holzheim, Germany) concentrations. […] In addition, serum aliquots were centrifuged (10,000 × g, 4 °C, 30 min) and T50’s were determined as described above. […]

The next data set deals with T1, Transporter, GABA (Rattus norvegicus, UniProt P23978).
T1 construct: purchased Eurofins Panlabs Discovery Services Taiwan, Ltd
In words: Off-target 226400. It is filed as binding. The protocol: The potential off-target activity of 10 µM (OEG2)2-IP4 was assessed against a panel of 87 enzymes, receptors, or ion channels that are used in standard safety pharmacology screens.
3.2. Off-target screening assay
The experiments were conducted by a contract research organization (Eurofins Panlabs Discovery Services Taiwan, Ltd.) and details on the respective assays can be retrieved via the catalog number provided in Supplementary Table 11 from the company’s webpage
(https://www.eurofinsdiscoveryservices.com/). […]
At sacrifice the left tibia of animals of the rat model with dietary adenine/high-phosphate-induced uremia and VC was collected, fixed with 70% v/v EtOH and embedded in methyl methacrylate. The trabecular bone compartment is known to be the most metabolic active i.e. actively re-structured bone compartment in CKD. Therefore, histomorphometric and micro-computed tomography (µCT) analysis of bone was performed on the trabecular compartment. Tibial sections were Goldner-stained for histomorphometric analysis of the proximal metaphysis using the AxioVision Release 4.5 software, as […]
described previously5. […]

A short description of data set [3]: Plasma calcium after s.c. administration in healthy rats. In kind it is in vivo, rat. The following applies: 50 mg/kg s.c., acute or sub-chronic (7 days), at tmax of 30 min.

For orientation: AUC(0-inf) means the area under the concentration-time curve extrapolated to infinity. The CL/F is the apparent clearance, not corrected for the fraction that reaches the circulation. By Cmax is commonly meant the maximum level reached in the sampled fluid or tissue. The term half-life denotes how long it takes for the measured level to halve. Broadly, the inhibition is the percentage by which the read-out fell short of the control. Low readings indicate little suppression, high ones strong suppression.

Molecules are shown by their SMILES. Values joined by “and” are separate entries in the source; they are usually repeats but may differ in a detail not shown here. Equal values may be shown once.

For the compound `COCCOCCO[C@@H]1[C@@H](OP(=O)(O)O)[C@H](OCCOCCOC)[C@@H](OP(=O)(O)O)[C@@H](OP(=O)(O)O)[C@H]1OP(=O)(O)O` [(OEG2)2-IP4, 4,6-Di-O-(methoxy-diethyleneglycol)-myo-inositol-1,2,3,5-tetrakis(phosphate)], in data set [1], the AUC(0-inf) was 152 µM·h. In addition, the CL/F in data set [1] came out at 7 ± 2 mL/min/kg. Further, the Cmax in data set [1] came out at 34 ± 8 µM. Besides, in data set [1], the half-life was 3.73 ± 0.733 h. Besides, the AUC(0-t) in data set [1] (read-out: AUC0-1440 (converted)) was 151 µM·h. The MRT last in data set [1] (read-out: MRT0-1440 (converted)) is 3.5 h. Moreover, the “plasma calcium (Figure 4k)” value in data set [2] (Acute, 30 min postdose) is 2.45 and 2.725 and 1.925 and 1.85; in data set [2] (Acute, Predose), 2.8 and 2.45 and 2.3 and 1.975; in data set [2] (Sub-chronic, 30 min postdose) it was 2.175 and 2.2 and 2.05 and 1.925; in data set [2] (Sub-chronic, Predose), 2.275 and 2.3 and 2.55 and 1.925. The “serum CPP calcium content, CPP2 hydrodynamic diameter and T50 in sera at sacrifice” value with serum CPP is reported as “did not differ between treatment groups”. 10 µM produced 4% inhibition at Transporter, GABA. Moreover, in data set [3], the “lowering of serum calcium” value was “No significant lowering of serum calcium”.
